The text below walks through data of ChEMBL document CHEMBL1135030, “Antitumor agents. Part 212. Bucidarasins A-C, three new cytotoxic clerodane diterpenes from Bucida buceras” (Bioorg Med Chem Lett, 2002).

The subject of assay [1] is A549. Put plainly: In vitro cytotoxicity against parental and drug resistant lung human tumor cell line A549. It is filed as functional, cell-based.
Assay [2] relates to CAKI-1. Put plainly: In vitro cytotoxicity against parental and drug resistant kidney human tumor cell line CAKI. The format is functional, cell-based.
The test system of assay [3] is HCT-8. Briefly: In vitro cytotoxicity against parental and drug resistant ileococal human tumor cell line HCT-8. The format is functional, cell-based.
In assay [4] the test system is HOS. Put plainly: In vitro cytotoxicity against parental and drug resistant bone human tumor cell line HOS. It is filed as functional, cell-based.
Assay [5] has as its system SK-MEL-2. Briefly: In vitro cytotoxicity against parental and drug resistant melanoma human tumor cell line SK-MEL-2. It is filed as functional, cell-based.
Assay [6] has as its system KB. Briefly: In vitro cytotoxicity against parental and drug resistant etoposide resistant human tumor cell line KB-7d. It is filed as functional, cell-based.
Assay [7] deals with 1A9. Put plainly: In vitro cytotoxicity against parental and drug resistant ovarian human tumor cell line IA9. The format is functional, cell-based.
Assay [8] has as its system KB. Briefly: In vitro cytotoxicity against parental and drug resistant camptothecin resistant human tumor cell line KB-CPT. The format is functional, cell-based.
Assay [9] relates to KB. Put plainly: In vitro cytotoxicity against parental and drug resistant vincristine resistant human tumor cell line KB-VIN. It is filed as functional, cell-based.
Assay [10] relates to KB. Put plainly: In vitro cytotoxicity against parental and drug resistant nasopharyngeal human tumor cell line KB. The format is functional, cell-based.
The subject of assay [11] is MCF7. Put plainly: In vitro cytotoxicity against parental and drug resistant breast human tumor cell line MCF-7. The format is functional, cell-based.
Assay [12] deals with U-87 MG. Put plainly: In vitro cytotoxicity against parental and drug resistant glioblastoma human tumor cell line U87MG. It is filed as functional, cell-based, U-87MG ATCC.
Assay [13] deals with 1A9/ptx-10. Put plainly: In vitro cytotoxicity against parental and drug resistant paclitaxel human tumor cell line IA9-PTX10. The format is functional, cell-based.
Assay [14] deals with A549. Briefly: Percentage inhibition against parental and drug resistant lung human tumor cell line A549 at 10 uM. The format is functional.
Assay [15] relates to CAKI-1. Briefly: In vitro cytotoxicity against parental and drug resistant kidney human tumor cell line CAKI; Not active at 10 uM. The format is functional, cell-based.
Assay [16] concerns HCT-8. Briefly: In vitro cytotoxicity against parental and drug resistant ileococal human tumor cell line HCT-8; Not active at 10 uM. It is filed as functional, cell-based.
For assay [17], the system named is HOS. Put plainly: In vitro cytotoxicity against parental and drug resistant bone human tumor cell line HOS; Not active at 10 uM. It is filed as functional, cell-based.
The test system of assay [18] is SK-MEL-2. Put plainly: Percentage inhibition against parental and drug resistant melanoma human tumor cell line SK-MEL-2 at 10 uM. It is filed as functional.
In assay [19] the test system is KB. Put plainly: Percentage inhibition against parental and drug resistant nasopharyngeal human tumor cell line KB at 10 uM. The format is functional.
For assay [20], the system named is 1A9/ptx-10. Put plainly: In vitro cytotoxicity against parental and drug resistant paclitaxel human tumor cell line IA9-PTX10; Not active at 10 uM. It is filed as functional, cell-based.
Assay [21] relates to 1A9. Put plainly: In vitro cytotoxicity against parental and drug resistant ovarian human tumor cell line IA9; Not active at 10 uM. The format is functional, cell-based.
Assay [22] has as its system KB. Briefly: In vitro cytotoxicity against parental and drug resistant camptothecin resistant human tumor cell line KB-CPT; Not active at 10 uM. The format is functional, cell-based.
Assay [23] deals with KB. Briefly: Tested for cytotoxicity against parental and drug resistant etoposide resistant human tumor cell line KB-7d. It is filed as functional, cell-based.
Assay [24] relates to KB. Put plainly: Percentage inhibition against parental and drug resistant etoposide resistant human tumor cell line KB-7d at 10 uM. It is filed as functional.
The test system of assay [25] is KB. Briefly: Percentage inhibition against parental and drug resistant vincristine resistant human tumor cell line KB-VIN at 10 uM. It is filed as functional.
Assay [26] has as its system MCF7. Put plainly: In vitro cytotoxicity against parental and drug resistant breast human tumor cell line MCF-7 at 10 uM. The format is functional.
The test system of assay [27] is U-87 MG. Briefly: In vitro cytotoxicity against parental and drug resistant glioblastoma human tumor cell line U87MG; Not active at 10 uM. The format is functional, cell-based. The settings on record: u-87mg atcc.

As usually defined, the IC50 is the point on the concentration scale where inhibition reaches its midpoint. On to `C=C/C(C)=C/C[C@@]1(C)[C@@H](C)C[C@@H](O)C23C(=C[C@@H](OC(=O)C(C)C)C[C@@H]21)[C@H](OC(C)=O)O[C@@H]3OC(C)=O` (stereo partly drawn), for which the IC50 came out at 500 nM in the assay with A549 [1]; 1100 nM in the assay with CAKI-1 [2]; 900 nM in the assay on HCT-8 [3]; 800 nM in the assay with HOS [4]; 700 nM with SK-MEL-2 [5]; 800 nM with KB [6]. Besides, the IC50 amounted to 500 nM with 1A9 [7]; 800 nM with KB [8]; 1100 nM in the assay on KB [9]; 900 nM in the assay with KB [10]; 900 nM with MCF7 [11]; 1000 nM with U-87 MG [12]. Also, the IC50 in the assay with 1A9/ptx-10 [13] was determined as 500 nM.
As usually defined, the inhibition is the change of the read-out against control, counted positive when it falls. For `C=C/C(C)=C/C[C@@]1(C)[C@@H](C)CC[C@]2(COC(C)=O)C(COC(C)=O)=CC(=O)C[C@@H]21`, the IC50 in the assay on A549 [1] is > 10000 nM; in the assay on CAKI-1 [15] it was “Not Active”; in the assay with HCT-8 [16], “Not Active”; in the assay on HOS [17], “Not Active”; in the assay on SK-MEL-2 [5], > 10000 nM; in the assay on 1A9/ptx-10 [20], “Not Active”. Besides, the IC50 entry with 1A9 [21] was “Not Active”; with KB [22] it was “Not Active”; in the assay on KB [23], > 10 µM; with KB [9], > 10000 nM; in the assay on KB [10], > 10000 nM; with MCF7 [11], > 10000 nM. Further, the IC50 result with U-87 MG [27] is “Not Active”. Further, the inhibition at 10 µM in the assay on A549 [14] came to 6%; in the assay on SK-MEL-2 [18], 7%; in the assay on KB [19], 7%; with KB [24], 23%; in the assay with KB [25], 22%; in the assay with MCF7 [26], 12%.
For the compound `C=C/C(C)=C/C[C@@]1(C)[C@@H](C)CCC23C(=C[C@@H](OC(=O)C(C)C)C[C@@H]21)[C@H](OC(C)=O)O[C@@H]3OC(C)=O` (stereo partly drawn), the IC50 with A549 [1] came to 1100 nM; in the assay on CAKI-1 [2] it was 1800 nM; in the assay with HCT-8 [3], 1000 nM; with HOS [4], 900 nM; with SK-MEL-2 [5], 1000 nM; with KB [6] it was 900 nM. The IC50 in the assay on 1A9 [7] was 600 nM; in the assay on KB [8], 900 nM; in the assay with KB [9], 1000 nM; with KB [10], 900 nM; in the assay with MCF7 [11] it was 1100 nM; in the assay on U-87 MG [12] it was 1200 nM. Also, the IC50 in the assay with 1A9/ptx-10 [13] was found to be 500 nM.
Take `C=C/C(C)=C/C[C@]1(C)[C@H]2C[C@H](OC(=O)C(C)CC)C=C3[C@H](OC(C)=O)O[C@H](OC(C)=O)[C@@]32[C@H](O)C[C@@H]1C` (stereo partly drawn) [CASEARLUCIN A]: the IC50 in the assay on A549 [1] stood at 1100 nM; with CAKI-1 [2], 1900 nM; with HCT-8 [3] it was 1300 nM; with HOS [4] it was 1200 nM; with SK-MEL-2 [5], 1000 nM; in the assay with KB [6], 1100 nM. Besides, the IC50 with 1A9 [7] came out at 1000 nM; with KB [8], 1100 nM; with KB [9] it was 1200 nM; in the assay with KB [10], 1100 nM; with MCF7 [11], 1800 nM; with U-87 MG [12] it was 1400 nM. Moreover, the half-maximal inhibitory concentration (IC50) in the assay with 1A9/ptx-10 [13] worked out at 1100 nM.
